Measurements published in ChEMBL document CHEMBL4043152, “Design, synthesis, and cytotoxic activity of novel 7-substituted camptothecin derivatives incorporating piperazinyl-sulfonylamidine moieties” (Bioorg Med Chem Lett, 2017).
pIC50: −log10 of the molar value.

Experiments:
Format in all cases: functional, cell-based
A549 = assay: Cytotoxicity against human A549 cells after 72 hrs by SRB assay; conditions: A549, 72 h
MDA-MB-231 = assay: Cytotoxicity against human MDA-MB-231 cells after 72 hrs by SRB assay; conditions: MDA-MB-231, 72 h
KB = assay: Cytotoxicity against human KB cells after 72 hrs by SRB assay
MCF7 = assay: Cytotoxicity against human MCF7 cells after 72 hrs by SRB assay; conditions: MCF7, 72 h
[1] = Cytotoxicity against human KBVIN cells after 72 hrs by SRB assay

SMILES | pIC50 (A549) | pIC50 (MDA-MB-231) | pIC50 (KB) | pIC50 (MCF7) | pIC50 [1]
CC[C@@]1(O)C(=O)OCc2c1cc1n(c2=O)Cc2c-1nc1ccccc1c2CN1CCN(/C(Cc2ccccc2)=N\S(=O)(=O)c2ccc(Cl)cc2)CC1 | 6.19 | 5.30 | 6.13 | 5.50 | 5.81
CC[C@@]1(O)C(=O)OCc2c1cc1n(c2=O)Cc2c-1nc1ccccc1c2CN1CCN(/C(Cc2ccccc2)=N\S(=O)(=O)CC)CC1 | 6.14 | 5.46 | 6.31 | 5.72 | 5.37
CC[C@@]1(O)C(=O)OCc2c1cc1n(c2=O)Cc2c-1nc1ccccc1c2CN1CCN(/C(Cc2ccccc2)=N\S(=O)(=O)c2ccc3ccccc3c2)CC1 | 5.50 | 4.95 | 5.68 | 5.03 | 6.05
CC[C@@]1(O)C(=O)OCc2c1cc1n(c2=O)Cc2c-1nc1ccccc1c2CN1CCN(/C(Cc2ccc(OC)cc2)=N\S(=O)(=O)c2ccc3ccccc3c2)CC1 | 6.13 | 5.03 | 6.08 | 5.18 | 5.44
CC[C@@]1(O)C(=O)OCc2c1cc1n(c2=O)Cc2c-1nc1ccccc1c2CN1CCN(/C(Cc2ccc(OC)cc2)=N\S(=O)(=O)c2ccc([N+](=O)[O-])cc2)CC1 | 5.53 | 5.01 | 5.97 | 5.08 | 6.01
CC[C@@]1(O)C(=O)OCc2c1cc1n(c2=O)Cc2c-1nc1ccccc1c2CN1CCN(/C(Cc2ccc(F)cc2)=N\S(=O)(=O)c2cccnc2)CC1 | 5.59 | 5.20 | 5.17 | 5.22 | 5.24
CC[C@@]1(O)C(=O)OCc2c1cc1n(c2=O)Cc2c-1nc1ccccc1c2CN1CCN(/C(Cc2ccccc2)=N\S(=O)(=O)c2ccccc2)CC1 | 6.19 | 5.36 | 6.20 | 5.65 | 5.75
CC[C@@]1(O)C(=O)OCc2c1cc1n(c2=O)Cc2c-1nc1ccccc1c2CN1CCN(/C(Cc2ccc(F)cc2)=N\S(=O)(=O)c2ccc([N+](=O)[O-])cc2)CC1 | 6.20 | 5.45 | 5.35 | 5.66 | 6.07
CC[C@@]1(O)C(=O)OCc2c1cc1n(c2=O)Cc2c-1nc1ccccc1c2CN1CCN(/C(Cc2ccc(F)cc2)=N\S(=O)(=O)c2ccc3ccccc3c2)CC1 | 6.22 | 5.27 | 5.33 | 5.32 | 6.42
CC[C@@]1(O)C(=O)OCc2c1cc1n(c2=O)Cc2c-1nc1ccccc1c2CN1CCN(/C(Cc2ccc(OC)cc2)=N\S(=O)(=O)CC)CC1 | 6.15 | 5.42 | 6.33 | 5.54 | 5.56
CC[C@@]1(O)C(=O)OCc2c1cc1n(c2=O)Cc2c-1nc1ccccc1c2CN1CCN(/C(Cc2ccccc2)=N\S(=O)(=O)c2cccnc2)CC1 | 6.12 | 5.42 | 6.14 | 5.47 | 5.68
CC[C@@]1(O)C(=O)OCc2c1cc1n(c2=O)Cc2c-1nc1ccccc1c2CN1CCN(/C(Cc2ccc(F)cc2)=N\S(=O)(=O)c2ccc(C)cc2)CC1 | 5.75 | 5.22 | 5.97 | 5.15 | 5.56
CC[C@@]1(O)C(=O)OCc2c1cc1n(c2=O)Cc2c-1nc1ccccc1c2CN1CCN(/C(Cc2ccc(F)cc2)=N\S(=O)(=O)c2ccc(F)cc2)CC1 | 5.37 | 4.99 | 4.99 | 5.05 | 5.74
CC[C@@]1(O)C(=O)OCc2c1cc1n(c2=O)Cc2c-1nc1ccccc1c2CN1CCN(/C(Cc2ccccc2)=N\S(C)(=O)=O)CC1 | 6.19 | 5.80 | 6.89 | 5.80 | 5.42
CC[C@@]1(O)C(=O)OCc2c1cc1n(c2=O)Cc2cc3c(CN(C)C)c(O)ccc3nc2-1 [TOPOTECAN] | 6.96 |  |  | 6.55 | 6.18
CC[C@@]1(O)C(=O)OCc2c1cc1n(c2=O)Cc2c-1nc1ccccc1c2CN1CCN(/C(Cc2ccc(F)cc2)=N\S(=O)(=O)CC)CC1 | 6.30 | 5.60 | 6.48 | 5.80 | 6.01
CC[C@@]1(O)C(=O)OCc2c1cc1n(c2=O)Cc2c-1nc1ccccc1c2CN1CCN(/C(Cc2ccc(OC)cc2)=N\S(=O)(=O)c2cccnc2)CC1 | 6.10 | 5.30 | 6.06 | 5.37 | 5.62
CC[C@@]1(O)C(=O)OCc2c1cc1n(c2=O)Cc2c-1nc1ccccc1c2CN1CCN(/C(Cc2ccccc2)=N\S(=O)(=O)c2cccs2)CC1 | 6.19 | 5.40 | 6.23 | 5.90 | 5.90
CCc1c2c(nc3ccc(OC(=O)N4CCC(N5CCCCC5)CC4)cc13)-c1cc3c(c(=O)n1C2)COC(=O)[C@]3(O)CC [IRINOTECAN] | 5.08 |  |  | 4.95 | < 4.70
CC[C@@]1(O)C(=O)OCc2c1cc1n(c2=O)Cc2c-1nc1ccccc1c2CN1CCN(/C(Cc2ccc(OC)cc2)=N\S(=O)(=O)c2ccc(C)cc2)CC1 | 6.13 | 5.23 | 6.08 | 5.25 | 5.51
